According to ChEMBL document CHEMBL3232821, “1,2-benzisothiazol-3-one derivatives as a novel class of small-molecule caspase-3 inhibitors” (Bioorg Med Chem, 2014):
The source made the active and inactive calls. The rule behind the calls is not given here.

Key:
Caspase-7 = molecular target: T1, Caspase-7 (Homo sapiens, UniProt P55210); assay: Inhibition of human recombinant caspase-7 using Ac-DEVD-AMC as substrate after 10 mins by fluorescence assay
T1 sequence (P55210 whole entry): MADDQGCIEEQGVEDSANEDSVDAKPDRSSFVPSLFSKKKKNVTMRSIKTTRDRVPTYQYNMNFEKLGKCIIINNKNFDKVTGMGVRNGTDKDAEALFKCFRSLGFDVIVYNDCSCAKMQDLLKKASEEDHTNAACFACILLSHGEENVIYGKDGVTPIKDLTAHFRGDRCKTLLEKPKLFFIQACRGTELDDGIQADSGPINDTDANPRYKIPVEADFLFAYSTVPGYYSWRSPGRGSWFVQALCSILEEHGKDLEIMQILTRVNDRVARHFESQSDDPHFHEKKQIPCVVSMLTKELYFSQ

[1] = Solubility of the compound in water; type: physicochemical; conditions: buffer
Jurkat = assay: Antiapoptotic activity in human Jurkat T cells assessed as protection against camptothecin-induced apoptosis at 50 uM treated 2 hrs before camptothecin addition measured after 4 hrs using annexin V-FITC and 7-AAD staining by flow cytometry; type: functional, cell-based
Caspase-3 = molecular target: T2, Caspase-3 (Homo sapiens, UniProt P42574); assay: Inhibition of human recombinant caspase-3 using […] as substrate after 10 mins by fluorescence assay
T2 sequence (P42574 whole entry): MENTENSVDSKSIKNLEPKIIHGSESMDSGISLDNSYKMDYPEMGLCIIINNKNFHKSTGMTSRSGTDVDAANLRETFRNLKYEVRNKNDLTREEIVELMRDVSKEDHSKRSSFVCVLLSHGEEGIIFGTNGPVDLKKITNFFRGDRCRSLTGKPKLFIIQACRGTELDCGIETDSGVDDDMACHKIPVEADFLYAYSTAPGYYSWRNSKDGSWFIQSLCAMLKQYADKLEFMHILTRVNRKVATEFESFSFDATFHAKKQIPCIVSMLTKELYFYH

| IC50 (Caspase-7) [µM] | solubility [1] | IC50 (Caspase-3) [µM] | SMILES | Activity (Jurkat) |
| --- | --- | --- | --- | --- |
| 100 | – | – | O=C(Cn1sc2ccccc2c1=O)Nc1ccc(N2CCOCC2)cc1 | – |
| 248 | soluble | – | O=C(NCc1ccc(N2CCOCC2)cc1)n1sc2ccccc2c1=O | Active |
| 0.909 | Insoluble | 0.00115 | O=C(Nc1ccc(N2CCOCC2)cc1)n1sc2ccccc2c1=O | – |
| 137 | – | – | O=c1[nH]sc2ccccc12 | – |
